The values below come from US20090170846A1, “INHIBITORS OF THE HIV INTEGRASE ENZYME” (Pfizer Inc, priority 2005, published 2009).

Test [1] deals with T1, Full-length wild type HIV-1 integrase (SF1) (Human immunodeficiency virus type 1 group M subtype B, UniProt P04585).
T1 construct: made in house; host or cells: E. coli BL21 (DE3)
Kind of test: Integrase strand-transfer scintillation proximity assay. The test is classed as biochemical. The source says: Integrase Strand-Transfer Scintillation Proximity Assay
Oligonucleotides: Oligonucleotide #1-5′-(biotin)[…]-3′ (SEQ ID NO: 1) and oligonucleotide #2-5′-[…]-3′ (SEQ ID NO: 2), were synthesized by TriLink BioTechnologies, Inc. (San Diego, Calif.). The annealed product represents preprocessed viral ds-DNA derived from the LTR U5 sequence of the viral genome. A ds-DNA control to test for non-specific interactions was made using a 3′ di-deoxy derivative of oligonucleotide #1 annealed to oligonucleotide #2. The CA overhang at the 5′ end of the non-biotinylated strand of the ds-DNA was created artificially by using a complimentary DNA oligonucleotide shortened by 2 base pairs. This configuration eliminates the requisite 3′ processing step of the integrase enzyme prior to the strand-transfer mechanism.
Host ds-DNA was prepared as an unlabeled and [^3H]-thymidine labeled product from annealed oligonucleotide #3-5-[…]-3′ (SEQ ID NO: 3), and oligonucleotide #4-1-5′-[…]-3′ (SEQ ID NO: 4), both synthesized by TriLink BioTechnologies, Inc. (San Diego, Calif.). The annealed product had overhanging 3′ ends of poly(dA). Host DNA was custom radiolabeled by PerkinElmer Life Sciences Inc. (Boston, Mass.) using an enzymatic method with a 12/1 ratio of [methyl-^3H]dTTP/cold ds-DNA to yield 5′-blunt end ds-DNA with a specific activity of >900 Ci/mmol. The radiolabeled product was purified using a NENSORB cartridge and stored in stabilized aqueous solution (PerkinElmer). The final radiolabeled product had six [^3H]-thymidine nucleotides at both 5′ ends of the host ds-DNA.
Reagents: Streptavidin-coated polyvinyltoluene (PVT) SPA beads were purchased from Amersham Biosciences (Piscataway, N.J.). Cesium chloride was purchased from Shelton Scientific, Inc. (Shelton, Conn.). White, polystyrene, flat-bottom, non-binding surface, 96-well plates were purchased from Corning. All other buffer components were purchased from Sigma (St. Louis, Mo.) unless otherwise indicated.
Enzyme Construction Full-length wild type HIV-1 integrase (SF1) sequence (amino acids 1-289) was constructed in a pET24a vector (Novagen, Madison, Wis.). The construct was confirmed through DNA sequencing.
Enzyme Purification Full length wild-type HIV Integrase was expressed in E. coli BL21 (DE3) cells and induced with 1 mM isopropyl-1 thio-β-D-galactopyranoside (IPTG) when cells reached an optical density between 0.8-1.0 at 600 nm. Cells were lysed by microfluidation in 50 mM HEPES pH 7.0, 75 mM NaCl, 5 mM DTT, 1 mM 4-(2-Aminoethyl)benzenesulfonylfluoride HCl (AEBSF). Lysate was then centrifuged 20 minutes at 11 k rpm in GSA rotor in Sorvall RC-5B at 4° C. Supernant was discarded and pellet resuspended in 50 mM HEPES pH 7.0, 750 mM NaCl, 5 mM DTT, 1 mM AEBSF and homogenized in a 40 mL Dounce homogenizer for 20 minutes on ice. Homogenate was then centrifuged 20 minutes at 11 k rpm in SS34 rotor in Sorvall RC-5B at 4° C. Supernant was discarded and pellet resuspended in 50 mM HEPES pH 7.0, 750 mM NaCl, 25 mM CHAPS, 5 mM DTT, 1 mM AEBSF. Preparation was then centrifuged 20 minutes at 11 k rpm in SS34 rotor in Sorvall RC-5B at 4° C.
Supernant was then diluted 1:1 with 50 mM HEPES pH 7.0, 25 mM CHAPS, 1 mM DTT, 1 mM AEBSF and loaded onto a Q-Sepharose column pre-equilibrated with 50 mM HEPES, pH 7.0, 375 mM NaCl, 25 mM CHAPS, 1 mM DTT, 1 mM AEBSF. The flow through peak was collected and NaCl diluted to 0.1 M with 50 mM HEPES pH 7.0, 25 mM CHAPS, 1 mM DTT, 0.5 mM AEBSF and loaded onto a SP-Sepharose column pre-equilibrated with 50 mM HEPES pH 7.0, 100 mM NaCl, 25 mM CHAPS, 1 mM DTT, 0.5 mM AEBSF. After washing the column with the equilibration buffer, a 100 to 400 mM NaCl gradient was run. The eluted integrase was concentrated and run on a S-300 gel diffusion column using 50 mM HEPES pH 7.0, 500 mM NaCl, 25 mM CHAPS, 1 mM DTT, 0.5 mM AEBSF. The peak from this column was concentrated to 0.76 mg/mL and stored at −70° C. and later used for strand transfer assays. […]
(Scintillation proximity formats need no separation of bound from free tracer.)

The subject of test [2] is RF strain of HIV-1 in CEM-SS cells. Kind of test: HIV-1 cell protection assay (XTT dye reduction). Type of test: cell-based. As for the experimental part:
HIV-1 Cell Protection Assay
The antiviral activities of potential modulator compounds (test compounds) were determined in HIV-1 cell protection assays using the RF strain of HIV-1, CEM-SS cells, and the XTT dye reduction method (Weislow, O, S. et al., J. Natl. Cancer Inst 81: 577-586 (1989)). Subject cells were infected with HIV-1 RF virus at an moi of to affect about a 90% kill (for example, an moi in the range of from about 0.025 to about 0.819) or mock infected with medium only and added at 2×10^4 cells per well, with the addition of approximately 200 μL of medium, into 96 well plates containing half-log dilutions of test compounds. Six days later, 50 μl of XTT solution (1 mg/ml XTT tetrazolium and 20 nM phenazine methosulfate) were added to the wells and the plates were reincubated for four hours. Viability, as determined by the amount of XTT formazan produced, was quantified spectrophotometrically by absorbance at 450 nm.
Data from CPE assays were expressed as the percent of formazan produced in compound-treated cells compared to formazan produced in wells of uninfected, compound-free cells. The fifty percent effective concentration (EC50) was calculated as the concentration of compound that affected an increase in the percentage of formazan production in infected, compound-treated cells to 50% of that produced by uninfected, compound-free cells. The 50% cytotoxicity concentration (CC50) was calculated as the concentration of compound that decreased the percentage of formazan produced in uninfected, compound-treated cells to 50% of that produced in uninfected, compound-free cells. The therapeutic index was calculated by dividing the cytotoxicity (CC50) by the antiviral activity (EC50).
(Tetrazolium dyes change colour on reduction, which living cells bring about.)

[3] abbreviates: integrase strand-transfer SPA, read-out: IC50.
Where [4] appears, read: Human immunodeficiency virus 1, CEM-SS, 144 h.
Setting [5] is: Human immunodeficiency virus 1, 144 h, HIV-1 RF, CEM-SS cells, XTT, six days, read-out: EC50.

The IC50 is the concentration that inhibits the measured activity by half. What is called EC50 is the concentration needed to bring the measured effect to its halfway point.

Like-named read-outs stand apart in the source and are kept apart here.

As to `CN(O)C(=O)c1cc2c(C(=O)N3CCC[C@H]3CO)cn(Cc3ccc(F)cc3)c2cn1` [Example 22, 1-(4-fluorobenzyl)-N-hydroxy-3-{[(2S)-2-(hydroxymethyl)pyrrolidin-1-yl]carbonyl}-N-methyl-1H-pyrrolo[2,3-c]pyridine-5-carboxamide], the half-inhibitory concentration (IC50) in test [1] (setting [3]) came to 320 nM. Besides, it took 170 nM to reach a half-maximal effect in test [2] (setting [4]) (EC50).
The corresponding values for `CN(O)C(=O)c1cc2c(C(=O)NCC34CCCN3CCC4)cn(Cc3ccc(F)cc3)c2cn1` [Example 14, 1-(4-fluorobenzyl)-N~5~- hydroxy-N~5~-methyl-N~3~-(tetrahydro-1H-pyrrolizin-7a(5H)-ylmethyl)-1H-pyrrolo[2,3-c]pyridine-3,5-dicarboxamide] are 2600 nM and 5400 nM.
In turn, `O=C(NO)c1cc2c(NS(=O)(=O)c3ccccc3)cn(Cc3ccc(F)cc3)c2cn1` [Example 3, 1-(4-fluorobenzyl)-N-hydroxy-3-[(phenylsulfonyl)amino]-1H-pyrrolo[2,3-c]pyridine-5-carboxamide] came in with an IC50 in test [1] of 40.5 nM. Besides, in test [2] (setting [5]), the 50% effective concentration (EC50) was 21 nM.
For the molecule `CONC(=O)c1cc2c(C(=O)NCCN3CCOCC3)cn(Cc3ccc(F)cc3)c2cn1` [Example 7, 1-(4-fluorobenzyl)-N~5~- methoxy-N~3~-(2-morpholin-4-ylethyl)-1H-pyrrolo[2,3-c]pyridine-3,5-dicarboxamide], the concentration for half-maximal inhibition (IC50) in test [1] (setting [3]) came out at 550 nM. This molecule also came in with an EC50 in test [2] (setting [4]) of 62 nM.
Taken in the same sequence, the figures for `CONC(=O)c1cc2c(C(=O)NCCCN3CCCC3=O)cn(Cc3ccc(F)cc3)c2cn1` [Example 9, 1-(4-fluorobenzyl)-N~5~- methoxy-N~3~-[3-(2-oxopyrrolidin-1-yl)propyl]-1H-pyrrolo[2,3-c]pyridine-3,5-dicarboxamide] were 267 nM and 42 nM.
Consider `CN(O)C(=O)c1cc2c(C(=O)NC[C@@H]3CCCO3)cn(Cc3ccc(F)cc3)c2cn1` [Example 43, 1-(4-fluorobenzyl)-N5-hydroxy-N5-methyl-N3-[(2S)-tetrahydrofuran-2-ylmethyl]-1H-pyrrolo[2,3-c]pyridine-3,5-dicarboxamide], for which the IC50 in test [1] (setting [3]) stood at 221 nM. It took 80 nM to reach a half-maximal effect in test [2] (setting [4]) (EC50).
Take `O=C(NO)c1cc2c(S(=O)(=O)NCCN3CCOCC3)cn(Cc3ccc(F)cc3F)c2cn1` [Example 37, 1-(2,4-difluorobenzyl)-N-hydroxy-3-{[(2-morpholin-4-ylethyl)amino]sulfonyl}-1H-pyrrolo[2,3-c]pyridine-5-carboxamide]: the IC50 in test [1] (setting [3]) stood at 161 nM. Besides, the half-maximal effective concentration (EC50) in test [2] (setting [5]) came to 490 nM.
Take `CN(O)C(=O)c1cc2c(C(=O)NCCCN3CCCC3=O)cn(Cc3ccc(F)cc3)c2cn1` [Example 16, 1-(4-fluorobenzyl)-N~5~- hydroxy-N~5~-methyl-N~3~-[3-(2-oxopyrrolidin-1-yl)propyl]-1H-pyrrolo[2,3-c]pyridine-3,5-dicarboxamide]: the IC50 in test [1] (setting [3]) is 211 nM. For the same molecule, the EC50 in test [2] (setting [4]) was found to be 180 nM.
`CN(O)C(=O)c1cc2c(S(=O)(=O)N3CCC[C@H]3C(N)=O)cn(Cc3ccc(F)cc3F)c2cn1` [Example 42, 3-{[(2S)-2-(aminocarbonyl)pyrrolidin-1-yl]sulfonyl)-1-(2,4-difluorobenzyl)-N-hydroxy-N-methyl-1H-pyrrolo[2,3-c]pyridine-5-carboxamide] gave a half-inhibitory concentration (IC50) in test [1] of 1050 nM. For the same molecule, the EC50 in test [2] (setting [5]) came to 6300 nM.
For `CN(O)C(=O)c1cc2c(C(=O)N3CCCC(CO)C3)cn(Cc3ccc(F)cc3)c2cn1` (centres unmarked) [Example 33], the IC50 in test [1] (setting [3]) is 320 nM. Also, a half-maximal response in test [2] (setting [4]) (EC50) required 140 nM.
The corresponding values for `Cc1c(CNC(=O)c2cn(Cc3ccc(F)cc3)c3cnc(C(=O)NO)cc23)cnn1C` [Example 28, N~3~-[(1,5-dimethyl-1H-pyrazol-4-yl)methyl]-1-(4-fluorobenzyl)-N~5~- hydroxy-1H-pyrrolo[2,3-c]pyridine-3,5-dicarboxamide] are 46 nM and 100 nM.
As for `CONC(=O)c1cc2c(C(=O)N3CCC[C@H]3CO)cn(Cc3ccc(F)cc3)c2cn1` [Example 10, 1-(4-fluorobenzyl)-3-{[(2S)-2-(hydroxymethyl)pyrrolidin-1-yl]carbonyl}-N-methoxy-1H-pyrrolo[2,3-c]pyridine-5-carboxamide], the IC50 in test [1] (setting [3]) amounted to 1140 nM. This molecule also showed an EC50 in test [2] (setting [4]) of 40 nM.
Taken in the same sequence, the figures for `CONC(=O)c1cc2c(C(=O)NC(C)C)cn(Cc3ccc(F)cc3)c2cn1` [Example 47, 1-(4-fluorobenzyl)-N3-isopropyl-N5-methoxy-1H-pyrrolo[2,3-c]pyridine-3,5-dicarboxamide] were 249 nM and 32 nM.
For `O=C(NO)c1cc2c(C(=O)N3CCC[C@H]3CO)cn(Cc3ccc(F)cc3)c2cn1` [Example 23, 1-(4-fluorobenzyl)-N-hydroxy-3-{[(2S)-2-(hydroxymethyl)pyrrolidin-1-yl]carbonyl}-1H-pyrrolo[2,3-c]pyridine-5-carboxamide], in test [1] (setting [3]), the 50% inhibitory concentration (IC50) amounted to 75 nM. Also, a half-maximal response in test [2] (setting [4]) (EC50) required 57 nM.
Take `O=C(NO)c1cc2c(C(=O)NCCN3CCOCC3)cn(Cc3ccc(F)cc3)c2cn1` [Example 27, 1-(4-fluorobenzyl)-N~5~- hydroxy-N~3~-(2-morpholin-4-ylethyl)-1H-pyrrolo[2,3-c]pyridine-3,5-dicarboxamide]: in test [1] (setting [3]), the 50% inhibitory concentration (IC50) came out at 76 nM. For the same molecule, in test [2] (setting [4]), the response was half-maximal at 38 nM (EC50).
The corresponding values for `CONC(=O)c1cc2c(C(=O)N3CCCC(CO)C3)cn(Cc3ccc(F)cc3)c2cn1` (centres unmarked) [Example 13, 1-(4-fluorobenzyi)-3-{[3-(hydroxymethyl)piperidin-1-yl]carbonyl}-N-methoxy-1H-pyrrolo[2,3-c]pyridine-5-carboxamide] are 374 nM and 66 nM.
